According to ChEMBL document CHEMBL1649582, “Novel expression vector for secretion of cecropin AD in Bacillus subtilis with enhanced antimicrobial activity” (Antimicrob Agents Chemother, 2009):
In brackets after ≈: the same amount, converted by molar mass. Activity calls are given as the source filed them. The calls are words filed in the database; no cut-off is given here. Where a SMILES comes first, the peptide text is derived from it.

How the values were obtained:
[1] = test system: Staphylococcus aureus; assay: Antimicrobial activity against Staphylococcus aureus IVDC C56005 assessed as microbial growth inhibition at pH 4 to 9; assay type: functional, organism-based
[2] = Toxicity in human RBCs assessed as induction hemolysis at 0.01 to 200 ug/mL; assay type: cell-based; details: erythrocyte
[3] = test system: Staphylococcus aureus; assay: Antimicrobial activity against Staphylococcus aureus IVDC C56005 assessed as microbial growth inhibition at >85 degC for 20 mins; assay type: functional, organism-based
[4] = test system: Salmonella typhimurium; assay: Antimicrobial activity against Salmonella enterica serovar Typhimurium IVDC C77-31 by microdilution assay; assay type: functional, Salmonella enterica subsp. enterica serovar Typhimurium
[5] = test system: Staphylococcus aureus; assay: Antimicrobial activity against Staphylococcus aureus IVDC C56005 assessed as microbial growth inhibition in presence of trypsin; assay type: functional, organism-based
[6] = test system: Escherichia coli; assay: Antimicrobial activity against Escherichia coli K88 by microdilution assay; assay type: functional
[7] = test system: Staphylococcus aureus; assay: Antimicrobial activity against Staphylococcus aureus IVDC C56005 assessed as microbial growth inhibition in presence of proteinase K; assay type: functional, organism-based
[8] = test system: Salmonella enteritidis; assay: Antimicrobial activity against Salmonella enterica serovar Enteritidis IVDC C79-52 by microdilution assay; assay type: functional, Salmonella enterica subsp. enterica serovar Enteritidis
[9] = test system: Escherichia coli; assay: Antimicrobial activity against Escherichia coli K12D31 by microdilution assay; assay type: functional
[10] = test system: Staphylococcus aureus; assay: Antimicrobial activity against Staphylococcus aureus IVDC C56005 assessed as microbial growth inhibition in presence of pepsin; assay type: functional, organism-based
[11] = test system: Staphylococcus aureus; assay: Antimicrobial activity against Staphylococcus aureus IVDC C56005 by microdilution assay; assay type: functional
[12] = test system: Enterococcus faecalis; assay: Antimicrobial activity against Streptococcus faecalis IVDC C55614 by microdilution assay; assay type: functional
[13] = test system: Staphylococcus aureus; assay: Antimicrobial activity against Staphylococcus aureus IVDC C56005 assessed as microbial growth inhibition at pH <4.0; assay type: functional, organism-based
[14] = test system: Staphylococcus aureus; assay: Antimicrobial activity against Staphylococcus aureus IVDC C56005 assessed as microbial growth inhibition at 55 degC for 20 mins; assay type: functional, organism-based
[15] = test system: Escherichia coli; assay: Antimicrobial activity against Escherichia coli K99 by microdilution assay; assay type: functional

In the case of `CC[C@H](C)[C@H](NC(=O)[C@H](CCCCN)NC(=O)[C@H](CCCCN)NC(=O)[C@H](Cc1ccccc1)NC(=O)[C@H](CC(C)C)NC(=O)[C@H](CCCCN)NC(=O)[C@H](Cc1c[nH]c2ccccc12)NC(=O)[C@@H](N)CCCCN)C(=O)N[C@@H](CCC(=O)O)C(=O)N[C@@H](CCCCN)C(=O)N[C@H](C(=O)NCC(=O)N[C@@H](CCC(N)=O)C(=O)N[C@@H](CCCNC(=N)N)C(=O)N[C@H](C(=O)N[C@@H](CCCNC(=N)N)C(=O)N[C@@H](CC(=O)O)C(=O)N[C@@H](C)C(=O)N[C@H](C(=O)N[C@H](C(=O)N[C@@H](CO)C(=O)N[C@@H](C)C(=O)NCC(=O)N1CCC[C@H]1C(=O)N[C@@H](C)C(=O)N[C@H](C(=O)N[C@@H](C)C(=O)N[C@H](C(=O)N[C@H](C(=O)N[C@@H](C)C(=O)N[C@@H](CCC(N)=O)C(=O)N[C@@H](C)C(=O)N[C@H](C(=O)N[C@@H](C)C(=O)N[C@@H](CC(C)C)C(=O)N[C@@H](C)C(=O)N[C@@H](CCCCN)C(=O)O)[C@@H](C)O)C(C)C)[C@@H](C)O)C(C)C)[C@@H](C)CC)C(C)C)C(C)C)C(C)C` [CECROPIN AD] (H-KWKLFKKIEKVGQRVRDAVISAGPAVATVAQATALAK-OH), the “growth inhibition (GI)” value [1] is reported as “Active”, the Activity [2] is reported as “Non-toxic” and the “growth inhibition (GI)” value [3] is reported as “inactive”. For the same molecule, the MIC [4] was 8 µg/mL (≈ 2.02 µM), the “growth inhibition (GI)” value [5] was “Active” and the MIC [6] was 2 µg/mL (≈ 0.506 µM). The “growth inhibition (GI)” value [7] was “Active”, the MIC [8] was 16 µg/mL (≈ 4.05 µM) and the MIC [9] was 1.8 µg/mL (≈ 0.456 µM). For the same molecule, the “growth inhibition (GI)” value [10] was “Active”, the MIC [11] was 0.2 µg/mL (≈ 0.0506 µM) and the MIC [12] was 24 µg/mL (≈ 6.07 µM). For the same molecule, the “growth inhibition (GI)” value [13] was “inactive”, the “growth inhibition (GI)” value [14] was “Active” and the MIC [15] was 2 µg/mL (≈ 0.506 µM).
